Measurements from patent US9035073B2, “3-phenyl-3-methoxy-pyrrolidine derivatives useful as modulators of cortical catecholaminergic neurotransmission” (INTEGRATIVE RESEARCH LABORATORIES SWEDEN AB, priority 2008, dated 2015).
Structures can show the parent of a compound that is named as a salt.

Experiments:
[1] = test system: Dopamine (DA) in Striatum; assay: Microdialysis in awake and freely moving rats, DA in striatum; type: in vivo, rat; details: 50 μmol/kg s.c., awake freely moving rats
Source text: (§1) Male Sprague-Dawley rats weighing 220-320 g were used throughout the experiments. Before the experiment the animals were group housed, five animals in each cage, with free access to water and food. The animals were housed at least one week after arrival prior to surgery and use in the experiments. Each rat was used only once for microdialysis.
(§2) We use a modified version (Waters et al., 1994) of the I-shaped probe (Santiago M & Westerink B H C, 1990). The dialysis membrane we use is the AN69 polyacrylonitrile/sodiummethalylsulfonate copolymer (HOSPAL; o.d./i.d. 310/220 μm: Gambro, Lund, Sweden). In the dorsal striatum we use probes with an exposed length of 3 mm of dialysis membrane and in the prefrontal cortex the corresponding length is 2.5 mm. The rats were operated under isoflurane inhalationanesthesia while mounted into a Kopf stereotaxic instrument. Co-ordinates were calculated relative to bregma; dorsal striatum AP +1, ML ±2.6, DV −6.3; Pf cortex, AP +3.2, 8° ML ±1.2, DV −4.0 according to (Paxinos G & Watson C, 1986). The dialysis probe was positioned in a burr hole under stereotaxic guidance and cemented with phosphatine dental cement.
(§3) The rats were housed individually in cages for 48 h before the dialysis experiments, allowing them to recover from surgery and minimizing the risk of drug interactions with the anaesthetic during the following experiments. During this period the rats had free access to food and water. On the day of experiment the rats were connected to a micro perfusion pump via a swiwel and were replaced in the cage where they could move freely within its confinements. The perfusion medium was a Ringer's solution containing in mmol/l: NaCl; 140, CaCl2; 1.2, KCl; 3.0, MgCl2; 1.0 and ascorbic acid; 0.04 according to (Moghaddam B & Bunney B S, 1989). The pump was set to a perfusion speed of 2 μl/min and 40 μl samples were collected every 20 min. Each sample was analyzed at two HPLC systems. On an autoinjector (CMA 200) with a 10-port valve (Valco C10WE), holding two sample loops in series (4 μl and 20 μl), each brain dialysate sample is loaded in both loops simultaneously. […] The currents generated by the two EC detectors are converted to digital data and evaluated using Chromeleon software (Dionex) on a PC. The method sample turn over time was 4.5 min and two parallel experiments are normally analyzed simultaneously on the system. […]

[2] = test system: Norepinephrine (NA) in Striatum; assay: Microdialysis in awake and freely moving rats, NA in striatum; type: in vivo, rat; details: 50 μmol/kg s.c., awake freely moving rats
Source text: as §1, §2, §3

[3] = test system: Dopamine (DA) in Prefrontal Cortex; assay: Microdialysis in awake and freely moving rats, DA in prefrontal cortex; type: in vivo, rat; details: 50 μmol/kg s.c., awake freely moving rats
Source text: as §1, §2, §3

[4] = test system: Serotonin (5-HT) in Prefrontal Cortex; assay: Microdialysis in awake and freely moving rats, 5-HT in prefrontal cortex; type: in vivo, rat; details: 50 μmol/kg s.c., awake freely moving rats
Source text: as §1, §2, §3

[5] = test system: Norepinephrine (NA) in Prefrontal Cortex; assay: Microdialysis in awake and freely moving rats, NA in prefrontal cortex; type: in vivo, rat; details: 50 μmol/kg s.c., awake freely moving rats
Source text: as §1, §2, §3

[6] = test system: Serotonin (5-HT) in Striatum; assay: Microdialysis in awake and freely moving rats, 5-HT in striatum; type: in vivo, rat; details: 50 μmol/kg s.c., awake freely moving rats
Source text: as §1, §2, §3

SMILES	melting point	DA Stri ± SEM, maximum effect compared to baseline values [1]	NA Stri ± SEM, maximum effect compared to baseline values [2]	DA PFC ± SEM, maximum effect compared to baseline values [3]	5-HT PFC ± SEM, maximum effect compared to baseline values [4]	NA PFC ± SEM, maximum effect compared to baseline values [5]	5-HT Stri ± SEM, maximum effect compared to baseline values [6]
CCN1CCC(OC)(c2cccc(F)c2F)C1 (centres unmarked) (as salt: fumaric acid salt) [Example 13, 3-(2,3-difluorophenyl)-1-ethyl-3-methoxypyrrolidine]	94 to 98 °C	–	–	–	–	–	–
CCN1CCC(OC)(c2ccc(F)c(F)c2)C1 (centres unmarked) (as salt: oxalic acid salt) [Example 10, 3-(3,4-difluorophenyl)-1-ethyl-3-methoxypyrrolidine]	135 to 136 °C	–	–	–	–	–	–
CCN1CCC(OC)(c2cccc(Cl)c2F)C1 (single isomer, unassigned; (+)) (as salt: fumaric acid salt) [Example 2, (+)-3-(3-chloro-2-fluorophenyl)-1-ethyl-3-methoxypyrrolidine]	131 to 133 °C	–	–	–	–	–	–
CCN1CCC(OC)(c2cccc(F)c2F)C1 (single isomer, unassigned; (+)) (as salt: fumaric acid salt) [Example 6, (+)-3-(2,3-difluorophenyl)-1-ethyl-3-methoxypyrrolidine]	104 to 106 °C	–	–	–	–	–	–
COC1(c2cccc(Cl)c2F)CCNC1 (single isomer, unassigned; (+)) (as salt: oxalic acid salt) [Example 1, (+)-3-(3-chloro-2-fluorophenyl)-3-methoxypyrrolidine]	183 to 185 °C	–	–	–	–	–	–
COC1(c2cccc(F)c2F)CCNC1 (single isomer, unassigned; (+)) (as salt: oxalic acid salt) [Example 5, (+)-3-(2,3-difluorophenyl)-3-methoxypyrrolidine]	182 to 184 °C	–	–	–	–	–	–
COC1(c2cc(F)cc(F)c2)CCNC1 (single isomer, unassigned; (+)) (as salt: oxalic acid salt) [Example 14, (+)-3-(3,5-difluorophenyl)-3-methoxypyrrolidine]	185 to 187 °C	–	–	–	–	–	–
COC1(c2cccc(Cl)c2F)CCNC1 (single isomer, unassigned; (+)) [Example 1, (+)-3-(3-chloro-2-fluorophenyl)-3-methoxypyrrolidine]	–	122 ± 8% of control	164 ± 22% of control	459 ± 103% of control	327 ± 58% of control	660 ± 38% of control	350 ± 28% of control
COC1(c2cccc(F)c2F)CCNC1 (single isomer, unassigned; (+)) [Example 5, (+)-3-(2,3-difluorophenyl)-3-methoxypyrrolidine]	–	116 ± 0% of control	168% of control	353 ± 61% of control	260 ± 19% of control	437 ± 25% of control	296 ± 55% of control
CCN1CCC(OC)(c2cccc(F)c2F)C1 (single isomer, unassigned; (+)) [Example 6, (+)-3-(2,3-difluorophenyl)-1-ethyl-3-methoxypyrrolidine]	–	133 ± 9% of control	113% of control	297 ± 18% of control	157 ± 6% of control	285 ± 17% of control	138 ± 9% of control
CCN1CCC(OC)(c2cccc(F)c2F)C1 (single isomer, unassigned; (-)) (as salt: fumaric acid salt) [Example 8, (−)-3-(2,3-difluorophenyl)-1-ethyl-3-methoxypyrrolidine]	105 to 107 °C	–	–	–	–	–	–
CCN1CCC(OC)(c2cccc(F)c2F)C1 (single isomer, unassigned; (-)) [Example 8, (−)-3-(2,3-difluorophenyl)-1-ethyl-3-methoxypyrrolidine]	–	119 ± 3% of control	169 ± 28% of control	252% of control	197% of control	282% of control	187% of control
